Calls of active or inactive are those of the source.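 How the source made its calls: active means compounds giving half or more protection of infected cells from virus-caused growth loss, again on retest; inactive means the rest.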 Where a SMILES comes first, the peptide text is derived from it. Bridges are numbered along the chain shown (N, C = ends). The star is where a group is joined. Cbz = O=C(OCc1ccccc1)*
Test system: CEM cells HIV-1 protection, formazan growth assay
Test: NCI AIDS Antiviral Assay
Details: for IC50: measured here: growth of uninfected CEM cells
Outline: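 Human CEM cells, uninfected and HIV-1-infected, exposed to five drug concentrations; growth measured by soluble formazan assay and scored as percent protection from infection, with protecting compounds retested.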

## CSc1nc(C)c(CCOC(C)=O)c(N=P(c2ccccc2)(c2ccccc2)c2ccccc2)n1
  EC50: > 200 µM
  IC50: 28.8 µM

## CNC(=O)OCc1cc(C(=O)NCCCNCCCNC(=O)c2ccc([N+](=O)[O-])c(COC(=O)NC)c2)ccc1[N+](=O)[O-]
  outcome: inactive

## O=[N+]([O-])c1nccn1CC(O)CO (stereo unspecified)
  EC50: > 661 µM
  IC50: > 661 µM

## c1ccc(CN(Cc2ccccn2)Cc2ccccn2)cc1
  outcome: inactive

## Cc1cc[c]([Sb](=[O])([OH])[c]2ccc(C)cc2)cc1
  EC50: > 5.01 µM
  IC50: 0.851 µM

## Cc1cc(C(O)CCCc2ccccc2)cc(C)c1O (stereo unspecified)
  EC50: > 251 µM
  IC50: 83.2 µM

## CCCCn1c(-c2ccccc2)cs/c1=N\NC(=O)Cn1c(C)nc2ccccc21
  EC50: > 85.1 µM
  IC50: 34.7 µM

## O=C(O)CCNCCCNCCC(=O)O
  EC50: > 851 µM
  IC50: > 851 µM

## COc1cc(N=Nc2ccccc2C(=O)[O-])cc(/C=N/NC(N)=S)c1[O-].[O]=[Mo]=[O].[O]=[Mo]=[O]
  outcome: inactive

## O=C1c2cccc3c([N+](=O)[O-])ccc(c23)C(=O)N1NCCO
  outcome: inactive

## NC1=NN(c2ccccc2)C(=O)C1C(=O)CCC(=O)Nc1cccc(Cl)c1 (stereo unspecified)
  EC50: > 339 µM
  IC50: > 339 µM

## Cc1ccc(N2C(=O)C3C=CC(n4[nH]c(=O)n(Cc5ccccc5)c4=O)CC3C2=O)cc1 (stereo unspecified)
  EC50: > 417 µM
  IC50: > 417 µM

## CCN(CC)CCOc1ccc(/C(C#N)=C/c2ccc(C(F)(F)F)cc2)cc1
  EC50: > 20 µM
  IC50: 1.23 µM

## CCN(CC)CCC(=O)Nc1ccc2c(c1)C(=O)c1ccc(NC(=O)CCN(CC)CC)cc1C2=O
  EC50: > 200 µM
  IC50: 3.39 µM

## Cc1ccc(S(=O)(=O)NC2CCCCO2)cc1 (stereo unspecified)
  EC50: > 708 µM
  IC50: > 708 µM

## CC(C)(C)OC(=O)NCCC1SC2C=CC1C2 (stereo unspecified)
  EC50: > 200 µM
  IC50: 107 µM

## O=C1NC(=O)C(=Cc2ccccc2Br)C(=O)N1
  EC50: > 229 µM
  outcome: inactive
  IC50: 2.4 µM

## COc1ccc(CC2C(=O)NC(=O)NC2=O)cc1OCc1ccccc1
  outcome: inactive

## CCCCn1c(N)c(N=O)c(=O)n(CCCC)c1=O
  EC50: > 200 µM
  IC50: 89.1 µM

## Oc1c(NCn2nc(CCCCCCCCc3nn(CNc4ccc5ccccc5c4O)c(=S)o3)oc2=S)ccc2ccccc12
  EC50: > 200 µM
  IC50: 35.5 µM

## COC1C=CC(C(=O)[N+]2=Cc3[nH]c4ccccc4c3CC2)O1 (stereo unspecified)
  EC50: > 251 µM
  IC50: 85.1 µM

## COC(=O)[C@H]1C[C@H]1NC(=O)C(CC(=O)OCc1ccccc1)NC(=O)OCc1ccccc1 (stereo partly specified)
  EC50: > 200 µM
  IC50: 79.4 µM

## C(=Nc1ccccc1)c1ccc(C=Nc2ccccc2)cc1
  EC50: > 3.63 µM
  IC50: > 3.63 µM

## C=C1CC2[C@H](C)C(=O)CCC2(C)C2=C1C1CCC(C(C)CCC(=C)C(C)C(=O)O)C1(C)CC2=O (stereo partly specified)
  EC50: > 200 µM
  IC50: 66.1 µM

## Nc1c2ccccc2nc2ccccc12
  EC50: > 200 µM
  IC50: 2.19 µM

## COC(=O)c1cc(C(c2cc(C(=O)OC)c(O)c(Br)c2C)C(Cl)(Cl)Cl)c(C)c(Br)c1O
  EC50: > 200 µM
  IC50: 112 µM

## COc1ccc(/C=C/C(=O)c2cccc(C(=O)/C=C/c3ccc(OC)c(OC)c3)n2)cc1OC
  EC50: > 200 µM
  IC50: 110 µM

## COc1cc(OC)c2nc3occc3c(OC)c2c1
  EC50: > 363 µM
  IC50: 58.9 µM

## CCCN1CN(c2ccccc2)C2(CCN(CCCC(=O)c3ccc(F)cc3)CC2)C1=O
  EC50: > 200 µM
  IC50: 3.02 µM

## O=C(Cn1cc(-c2ccccc2)nn1)NC1CCCCC1
  EC50: > 200 µM
  IC50: > 200 µM

## C[C@@H](CC(=O)O)OC1OC(COC(=O)C(C)(C)C)C(OC(=O)C(C)(C)C)C(OC(=O)C(C)(C)C)C1OC(=O)C(C)(C)C (stereo partly specified)
  EC50: > 200 µM
  IC50: 27.5 µM

## COc1ccc(/C=C(\C#N)c2ccc(OC)cc2)cc1
  EC50: > 200 µM
  IC50: 8.13 µM

## O=C(O)c1cc2ccccc2oc1=O
  EC50: > 1320 µM
  IC50: > 1320 µM

## Cc1cc(O)c2c(c1)C(C1c3cccc(O)c3C(=O)c3c(O)cc(C)cc31)c1cccc(O)c1C2=O (stereo unspecified)
  EC50: > 2 µM
  IC50: 0.0912 µM

## N#CC(NNC(=O)Cc1ccccc1)c1ccc(O)cc1 (stereo unspecified)
  EC50: > 891 µM
  IC50: 245 µM

## O=[N+]([O-])C1(CO)COC2(OC1)c1ccccc1-c1ccccc12
  outcome: inactive

## Cc1cc(N=Nc2c(C)ccc3ncccc23)ccc1N
  EC50: > 200 µM
  IC50: 0.603 µM

## CCN(CCCl)c1cc(C(=O)Nc2cc(NC(=O)c3cc(N(CC)CCCl)c([N+](=O)[O-])cc3[N+](=O)[O-])cc(C(=O)NCCN(C)C)c2)c([N+](=O)[O-])cc1[N+](=O)[O-]
  EC50: > 200 µM
  IC50: 126 µM

## N#Cc1c(-c2ccc(Cl)cc2Cl)nc2[nH][nH]c(=S)n2c1=O
  EC50: > 100 µM
  IC50: > 100 µM

## O=[N+]([O-])O[C@H]1CO[C@H]2[C@@H]1OC[C@H]2O[N+](=O)[O-]
  EC50: > 200 µM
  IC50: > 200 µM

## Cc1c2ccccc2nc(CSCCO)[n+]1[O-]
  EC50: > 200 µM
  IC50: > 200 µM

## CC1(C(=O)O)CCCC2(C)[C@@H]3CCC4CC3(CC[C@H]12)C[C@@]4(C)O (stereo partly specified)
  EC50: > 200 µM
  IC50: > 200 µM

## CCOP(=O)(CN1CCNCCN(CP(=O)(OCC)OCC)CC1)OCC
  EC50: > 100 µM
  IC50: > 100 µM

## CSc1ccccc1NC1=NCCO1
  EC50: > 200 µM
  IC50: > 200 µM

## Cc1c(C)c(C)c(Cn2[nH]c(=O)n(C)c2=O)c(C)c1C
  EC50: > 200 µM
  IC50: > 200 µM

## C#CC(C)(C)Oc1cc(O)c2c(=O)c3ccccc3n(C)c2c1
  EC50: > 23.4 µM
  IC50: > 23.4 µM

## CC(C)CCC[C@@H](C)C1CCC2[C@@H]3CC=C4C[C@@H](OP(=O)(O)OP(=O)(O)O)CC[C@]4(C)C3CC[C@@]21C (stereo partly specified)
  EC50: > 6.17 µM
  IC50: > 6.17 µM

## O=C1NCCS(=O)(=O)N[C@@H](CC2=CC=CCC2)C(=O)N2CCCC12 (stereo partly specified)
  EC50: > 708 µM
  IC50: > 708 µM

## CC(C)(CN(Cc1ccccc1)Cc1ccccc1)[N+](=O)[O-]
  outcome: inactive

## CN(C)c1ccc(/C=C(\NC(=O)c2ccccc2)c2nc3ncncc3[nH]2)cc1
  outcome: inactive

## COc1cc(CC2Cc3cccc(=O)c(O)c3C(=O)O2)cc(OC)c1OC (stereo unspecified)
  EC50: > 120 µM
  IC50: 17.4 µM

## OCC1(CO)CCC1(CO)CO
  outcome: inactive

## OCC1C2CCC3(OCCO3)C12 (stereo unspecified)
  EC50: > 200 µM
  IC50: > 200 µM

## CCOC(=O)C1(C#N)C(=O)c2cc[n+](CC[n+]3ccc4c(c3)C(=O)C(C#N)(C(=O)OCC)C4=O)cc2C1=O (stereo unspecified)
  EC50: > 200 µM
  IC50: 107 µM

## C=C=C(C(=O)OC)S(=O)c1ccccc1[N+](=O)[O-] (stereo unspecified)
  outcome: inactive

## NC(=O)c1ccc(N=Nc2c(O)c3ccccc3[nH]c2=O)cc1
  EC50: > 200 µM
  IC50: > 200 µM

## OCCCN1CCCC12CCCCC2
  EC50: > 200 µM
  IC50: > 200 µM

## CN(C)CCN1CCC(Cc2ccccc2)CC1
  EC50: > 200 µM
  IC50: 72.4 µM

## COc1c(Cl)cc(S(=O)OC)cc1Cl (stereo unspecified)
  outcome: inactive

## COC(=O)C1CCC(=O)NCCCCC(NC(=O)OCc2ccccc2)C(=O)N1 (stereo not drawn) (Cbz-Lys-Glu-OMe; lactam 1-2; configuration not given here)
  EC50: > 200 µM
  IC50: > 200 µM

## CCOC(=O)c1sc(SC)nc1NC(=O)c1ccc(Cl)cc1
  EC50: > 200 µM
  IC50: > 200 µM

## c1ccc(C2=C(c3ccccc3)CSSC2)cc1
  EC50: > 69.2 µM
  IC50: > 69.2 µM

## CC(=O)N/N=C(\C=C\c1ccccc1)c1ccccc1OC(C)=O
  EC50: > 200 µM
  IC50: 107 µM

## Oc1c(N2CCOCC2)cc(-c2cc(N3CCOCC3)c(O)c3ccccc23)c2ccccc12
  EC50: > 26.3 µM
  IC50: 3.63 µM

## Clc1ccc(CNNCc2cccc(Cl)c2)cc1
  EC50: > 200 µM
  IC50: 102 µM

## COc1ccc2c(=O)c(-c3ccc(OC)c(OC)c3)c(C)oc2c1
  EC50: > 200 µM
  IC50: > 200 µM

## CSc1nc(NC2OC(CO)C(O)C(O)C2O)cc(=O)[nH]1 (stereo unspecified)
  outcome: inactive

## O=S1(=O)/C(=C\C2CCCCC2)c2c1c(-c1ccccc1)c1ccccc1c2-c1ccccc1
  EC50: > 49 µM
  IC50: > 49 µM

## CCCCCCC(=O)CC(=O)C(=O)Nc1ccccc1C
  EC50: > 25.1 µM
  IC50: > 25.1 µM

## CCN(CC)CCOc1ccc(/C=C(\C#N)c2ccc(N(CC)CC)cc2)cc1
  EC50: > 200 µM
  IC50: 0.891 µM

## CCOC(=O)C1(C(=O)OCC)C[C@]23OCCC(=O)[C@H]2[C@H]2C(=O)OC(C)(C)O[C@]23C1
  EC50: > 200 µM
  IC50: > 200 µM

## CN(C)CCC(/C=C/c1ccccc1)=N\Nc1ccc(Cl)cc1
  EC50: > 100 µM
  IC50: 10.7 µM

## CC(C)(C)C(=O)N1C(C(=O)O)Cc2ccccc2[C@@H]1Cc1ccccc1 (stereo partly specified)
  EC50: > 74.1 µM
  IC50: > 74.1 µM

## CSCCOC(=O)c1cc(NC(=S)c2ccoc2C)ccc1Cl
  EC50: 0.0182 µM
  IC50: 19.5 µM

## O=C1C=Cc2cc(Br)ccc2C12CCc1c(O)ccc3cc(Br)cc2c13 (stereo unspecified)
  outcome: inactive

## CC(=O)N(CC1CCCN(C)C1)C12CC3CC(CC(C3)C1)C2 (stereo unspecified)
  EC50: > 117 µM
  IC50: > 117 µM

## COC(=O)c1cc(=O)nc(N/N=C/c2ccc(C)cc2)s1
  EC50: > 44.7 µM
  IC50: 30.9 µM

## C=C1SC(=Nc2ccc(Cl)cc2)N(c2nc(Cl)nc(Cl)n2)C12CCCCC2
  EC50: > 100 µM
  IC50: > 100 µM

## COc1cc(C2c3cc4c(c(O)c3C[C@H]3COC(=O)[C@@H]23)OCO4)cc(OC)c1OC (stereo partly specified)
  EC50: > 200 µM
  IC50: 0.468 µM

## C=C(C)[C@]12CC(C)C34OC(/C=C\C=C\CCCCCCCCC)(O[C@@H]1[C@@H]3[C@@H]1O[C@]1(CO)[C@@H](O)[C@]1(O)C(=O)C(C)=C[C@@H]41)O2 (stereo partly specified)
  EC50: > 0.2 µM
  IC50: 0.00389 µM

## CC(C)(C)C1=CC(=N/N=c2\scc(-c3ccccc3)n2-c2ccccc2)C=C(C(C)(C)C)C1=O
  EC50: > 15.1 µM
  IC50: > 15.1 µM

## O=C1C=C(N2CCCCC2)c2cnccc2C1=O
  outcome: inactive

## Cc1c(Cl)cccc1N1C(=O)C(Cl)=C(Cl)C1=O
  outcome: inactive

## COc1ccccc1S(=O)(=O)Sc1ccccc1[N+](=O)[O-]
  EC50: > 81.3 µM
  IC50: 25.7 µM

## FC(F)(F)C(F)(F)c1nnc(C(F)(F)C(F)(F)F)o1
  EC50: > 200 µM
  IC50: > 200 µM

## COc1ccc(N=Nc2c(N)nn3cc4c(nc23)CCC4)cc1
  outcome: inactive

## CCOC(=O)NC1CS(=O)(=O)CC1Cl (stereo unspecified)
  EC50: > 200 µM
  IC50: > 200 µM

## CN(C)c1ccc(/C=C2\C(=O)Nc3ccccc32)cc1
  EC50: > 10.2 µM
  IC50: > 10.2 µM

Reference: PubChem BioAssay AID179 (DTP/NCI, 2004)
